Test results from patent US20140228440A1, “1-AMINO-ALKYLCYCLOHEXANE DERIVATIVES FOR THE TREATMENT OF INFLAMMATORY SKIN DISEASES” (MERZ PHARMA GmbH & CO. KGaA, priority 2008, published 2014).

Tested on: Propionibacterium acnes ATCC 11828
Assay: MIC and MBC by the agar dilution method
Format: cell-based
[1] = final concentration 0.08 %, pH 5.5
[2] = final concentration 0.08 %, pH 6.0
[3] = final concentration 0.16 %, pH 5.5
[4] = final concentration 0.16 %, pH 6.0
[5] = final concentration 0.16 %, pH 7.4
[6] = final concentration 0.31 %, pH 5.5
[7] = final concentration 0.31 %, pH 6.0
[8] = final concentration 0.31 %, pH 7.4
[9] = final concentration 0.63 %, pH 5.5
[10] = final concentration 0.63 %, pH 6.0
[11] = final concentration 0.63 %, pH 7.4
[12] = final concentration 1.56 %, pH 5.5
[13] = final concentration 1.56 %, pH 6.0
[14] = final concentration 1.56 %, pH 7.4
[15] = final concentration 2.50 %, pH 5.5
[16] = final concentration 2.50 %, pH 6.0
[17] = final concentration 2.50 %, pH 7.4
[18] = final concentration 3.13 %, pH 5.5
[19] = final concentration 3.13 %, pH 6.0
[20] = final concentration 3.13 %, pH 7.4
[21] = final concentration 6.25 %, pH 5.5
[22] = final concentration 6.25 %, pH 6.0
[23] = final concentration 6.25 %, pH 7.4

## CC1(C)CC(C)(C)CC(C)(N)C1.CS(=O)(=O)O [Neramexane mesylate]
Final concentration 0.01 %, pH 5.5
  growth of bacteria on duplicate plates (MIC determination): + +
Final concentration 0.01 %, pH 6.0
  growth of bacteria on duplicate plates (MIC determination): + +
Final concentration 0.01 %, pH 7.4
  growth of bacteria on duplicate plates (MIC determination): + +
Final concentration 0.04 %, pH 5.5
  growth of bacteria on duplicate plates (MIC determination): + +
Final concentration 0.04 %, pH 6.0
  growth of bacteria on duplicate plates (MIC determination): + +
Final concentration 0.04 %, pH 7.4
  growth of bacteria on duplicate plates (MIC determination): + +
[1]
  growth of bacteria (MBC determination): + +
  growth of bacteria on duplicate plates (MIC determination): − −
[2]
  growth of bacteria (MBC determination): + +
  growth of bacteria on duplicate plates (MIC determination): − −
Final concentration 0.08 %, pH 7.4
  growth of bacteria on duplicate plates (MIC determination): + +
[3]
  growth of bacteria (MBC determination): + +
  growth of bacteria on duplicate plates (MIC determination): − −
[4]
  growth of bacteria (MBC determination): + +
  growth of bacteria on duplicate plates (MIC determination): − −
[5]
  growth of bacteria (MBC determination): + +
  growth of bacteria on duplicate plates (MIC determination): − −
[6]
  growth of bacteria (MBC determination): + +
  growth of bacteria on duplicate plates (MIC determination): − −
[7]
  growth of bacteria (MBC determination): + +
  growth of bacteria on duplicate plates (MIC determination): − −
[8]
  growth of bacteria (MBC determination): + +
  growth of bacteria on duplicate plates (MIC determination): − −
[9]
  growth of bacteria (MBC determination): + +
  growth of bacteria on duplicate plates (MIC determination): − −
[10]
  growth of bacteria (MBC determination): − −
  growth of bacteria on duplicate plates (MIC determination): − −
[11]
  growth of bacteria (MBC determination): + +
  growth of bacteria on duplicate plates (MIC determination): − −
[12]
  growth of bacteria (MBC determination): − −
  growth of bacteria on duplicate plates (MIC determination): − −
[13]
  growth of bacteria (MBC determination): − −
  growth of bacteria on duplicate plates (MIC determination): − −
[14]
  growth of bacteria (MBC determination): − −
  growth of bacteria on duplicate plates (MIC determination): − −
[15]
  growth of bacteria (MBC determination): − −
  growth of bacteria on duplicate plates (MIC determination): − −
[16]
  growth of bacteria (MBC determination): − −
  growth of bacteria on duplicate plates (MIC determination): − −
[17]
  growth of bacteria (MBC determination): − −
  growth of bacteria on duplicate plates (MIC determination): − −
[18]
  growth of bacteria (MBC determination): − −
  growth of bacteria on duplicate plates (MIC determination): − −
[19]
  growth of bacteria (MBC determination): − −
  growth of bacteria on duplicate plates (MIC determination): − −
[20]
  growth of bacteria (MBC determination): − −
  growth of bacteria on duplicate plates (MIC determination): − −
[21]
  growth of bacteria (MBC determination): − −
  growth of bacteria on duplicate plates (MIC determination): − −
[22]
  growth of bacteria (MBC determination): − −
  growth of bacteria on duplicate plates (MIC determination): − −
[23]
  growth of bacteria (MBC determination): − −
  growth of bacteria on duplicate plates (MIC determination): − −
pH 5.5
  MBC: 1.56%
  MIC: 0.08%
pH 6.0
  MBC: 0.63%
  MIC: 0.08%
pH 7.4
  MBC: 1.56%
  MIC: 0.16%
